Results as given in paper PMC5142287, “Weight control interventions improve therapeutic efficacy of dacarbazine in melanoma by reversing obesity-induced drug resistance” (Cancer & Metabolism, 2016).
Entries after “also recorded” stand apart in the source; their conditions may differ.

Experiments:
[1] = Obesity-associated factors in B16F10-isografted ND C57BL/6J mice; type: in vivo; details: end of experiment
Description: Blood glucose levels and serum lipids were estimated as described previously. Insulin, leptin, and adiponectin levels in the serum were estimated by mouse-specific respective ELISA kits as described. Resistin, IL-6, and TNF-α levels in the serum were detected by indirect ELISA as described previously.

[2] = tested on: B16F10 cells; assay: MTT assay, B16F10 cells grown in medium with 5% serum of ND or HFD mice; details: for IC50: Mus musculus, cells grown 10 days, DTIC 48 h, MTT
[3] = tested on: FASN, P-gp, Cav-1, pAkt, PCNA, and cyclin D1; assay: Western blot of tumor lysates of B16F10-isografted mice; type: in vivo, C57BL/6J mice
Method: Melanoma tumor samples or cells were washed three to five times with ice-cold PBS and lysed in ice-cold RIPA lysis buffer as described previously. Briefly, the samples were centrifuged at 12000 RPM for 40 min and clear supernatants were stored at −80 °C. Protein concentrations were determined by Coomassie Plus Protein Assay Reagent (Thermo Scientific, IL, USA). Equal amounts of protein samples (50–100 μg) were resolved on 8–10% SDS-polyacrylamide gel and then transferred onto PVDF membrane (Millipore, MA, USA). […] After washing, the membranes were incubated with HRP-conjugated secondary antibodies (1:2000) and blots were developed using luminescence detection reagents (Santa Cruz Biotechnology, CA, USA).

[4] = tested on: B16F1 cells; assay: Long-term survival assay, B16F1 cells in serum from experimental mice; type: cell-based, Murine
Description: Additional file 1: Table S1. Composition of diets used in the study. Normal diet (ND) was procured from Amrut Laboratory Animal Feed, Pune, India, and high fat diet (HFD) was purchased from Provimi Animal Nutrition Pvt. Ltd., Bangalore, India. *, HFD was also supplemented with 400 g groundnut and 200 g dried coconut per kg body weight of mice. […] Obesity-associated parameters in the experimental ND mice recorded at the end of the experiment. ND male C57BL/6J mice were divided into two major groups. One group was orally treated with orlistat every alternate day before inoculating with B16F10 cells. The second group was orally given vehicle control on every alternate day for 8 weeks. Mice from both the groups (N = 11 per each group) were injected (s.c.) with B16F10 cells (2 × 10^5 cells/mouse in 100 μl PBS). Their body weight was monitored weekly throughout the study, and serum was collected at the end of the experiment. Blood glucose, serum TG, serum cholesterol, serum-free fatty acids, and serum LDLc were measured. Serum factors including leptin, adiponectin, insulin, resistin, IL-6, and TNF-α were estimated by ELISA. […] Effect of obesity-associated serum factors on the protein level of P-gp, Cav-1, and FASN in B16F1 cells. […] The data were recorded using Zeiss LSM510 META Confocal Microscope. […] Data were acquired on FACS Calibur and analyzed using BD CellQuest Pro software. […]

[5] = tested on: B16F10 cells; assay: Long-term survival assay, B16F10 cells in CM from 3T3-L1 cells; type: cell-based, Murine
Method: 3T3-L1 cells were plated in 35-mm dishes and differentiated as described, along with vehicle or orlistat treatment (50 μM).

[6] = tested on: metastatic melanoma; set-up: method as in PMID 10840932; details: cited from earlier work
[7] = tested on: B16F10 cells; assay: MTT assay, B16F10 cells grown in conditioned medium from 3T3-L1 cells; details: for IC50: Mus musculus, 10 days, DTIC 48 h, MTT
[8] = tested on: B16F10 cells; assay: Long-term survival assay, B16F10 cells in serum from experimental mice; type: cell-based, Murine
Method: After 24 h, DMEM containing 5% serum collected from experimental C57BL/6J mice (as illustrated in Fig. 1) was added and cells were cultured chronically for 10 days.

[9] = tested on: B16F10 melanoma; assay: B16F10 melanoma isograft in HFD (obese) C57BL/6J mice: tumor growth and survival; type: in vivo
Method: To study the impact of diet-induced obesity on the outcome of DTIC therapy in melanoma, we treated B16F10 melanoma isografted obese mice with DTIC purchased from Sigma, USA (80 mg/kg intraperitoneally for five consecutive days as described previously). In addition, to look into the impact of weight loss interventions on the outcome of DTIC therapy in obese mice, mice were administered with orlistat (an antiobesity drug known to inhibit gastrointestinal lipases) and/or shifted from high fat to normal diet followed by DTIC treatment. The detailed experimental plan is illustrated in Fig. 1a. Briefly, obese mice were administered orally with orlistat (10 mg/kg on every alternate day) purchased from Enzo Life Sciences, NY, USA, and/or shifted from high fat diet to normal diet. HFD C57BL/6J mice treated with vehicle or orlistat were termed as HFD-HFD Ctrl and HFD-HFD Orli (N = 11 per each group), respectively, whereas HFD C57BL/6J mice shifted to normal diet and treated with vehicle or orlistat were grouped as HFD-ND Ctrl and HFD-ND Orli (N = 11 per each group), respectively. After 15 days, these mice were injected subcutaneously (s.c.) with B16F10 cells (2 × 10^5) in 100 μl of PBS and monitored daily for the presence of palpable tumors and dimensions were recorded on alternate days. […] Tumor volume was calculated using the formula 0.52 × length × width^2 and was followed up throughout the study.

[10] = tested on: B16F10 melanoma; assay: B16F10 melanoma isograft in ND C57BL/6J mice: tumor growth and survival
Method: Melanoma cells were injected and orlistat treatment was continued. Following tumor formation, all groups of mice were treated with vehicle (acidified water) or DTIC, and tumor volume was followed up in these mice throughout the study as mentioned above. […] At the end of the experiment, mice were sacrificed, tumors were excised, and the samples were immediately preserved at −80 °C until further use. Five mice from each group were followed up for survival studies as mentioned above.

[11] = serum from orlistat-treated or diet-shifted obese mice, DTIC at 1415 μM

## CN(C)/N=N/c1[nH]cnc1C(N)=O [DTIC, Dacarbazine]
[1]; mean
  Blood glucose: 161.17 mg/dL
  Serum IL-6: 20.19 pg/mL
  Serum LDLc: 53.12 mg/dL
  Serum TG: 55.40 mg/dL
  Serum TNF-D: 12.35 pg/mL
  Serum adiponectin: 13873 ng/mL
  Serum cholesterol: 82.82 mg/dL
  Serum free fatty acids: 0.90 mM/L
  Serum insulin: 0.114 µg/L
  Serum leptin: 15.74 ng/mL
  Serum resistin: 0.99 ng/mL
[1]; mean (SD on next line)
  Body weight: 21.1 g
[2]; B16F10 cells
  Increase of IC50 in HFD serum vs ND serum: ~ 5 fold
[2]; B16-F10, HFD serum (5%)
  IC50: 6690 µM
[2]; B16-F10, ND serum (5%)
  IC50: 1420 µM
[3]; HFD mice
  Level of P-gp in tumors: further increased
  Protein levels of cyclin D1 and PCNA in tumors: increase
[3]; HFD mice treated with DTIC
  Cav-1 levels in tumors: elevated
  FASN level in tumors: further increased
[3]; ND mice
  Level of P-gp in tumors: reduced
  Protein levels of cyclin D1 and PCNA in tumors: reduced levels
[3]; ND mice treated with DTIC
  FASN and Cav-1 level in tumors: much lower
[4]; HFD serum, FASN, Cav-1 and P-gp simultaneously inhibited
  Increase of sensitivity to DTIC: approximately 80%
[4]; [11]
  Reduction of cell survival: ~75%
[5]; CM from differentiated ID adipocytes
  Effect on survival: did not remarkably affect
[5]; CM from differentiated adipocytes, simultaneous treatment with all three inhibitors (FASN, Cav-1, P-gp)
  Improvement of sensitivity to DTIC: approximately 80%
[5]; CM from orlistat-treated differentiating adipocytes, DTIC at 649 μM
  Survival remaining: approximately 30%
[6]
  Overall response rate: 20–25%
[7]; B16F10 cells
  Increase of concentration for 50% cell killing, CM of differentiated adipocytes vs preadipocytes: ~ 5 fold
[7]; B16-F10, CM from differentiated adipocytes (ID)
  IC50: 3250 µM
[7]; B16-F10, CM from undifferentiated preadipocytes (PA)
  IC50: 649 µM
[8]; HFD serum, FASN, Cav-1 and P-gp simultaneously inhibited (cerulenin, methyl β-cyclodextrin, verapamil)
  Increase of sensitivity to DTIC: approximately 80%
[8]; [11]
  Reduction of cell survival: approximately 70%
[9]; HFD mice
  Survivability of tumor-bearing mice: 60 days
  Survival of tumor-bearing mice: reduced
[9]; tumor-bearing HFD mice under weight control by orlistat treatment or diet shifting, DTIC therapy
  Survivability increase: 40%
[10]
  Survival of tumor-bearing mice: prolonged
[10]; DTIC 80 mg/kg i.p. 5 days, orlistat 10 mg/kg oral alternate days
  Tumor progression (tumor volume and weight): significantly reduced; also recorded: significantly decreased
